These results are taken from patent publication US8691818B2, “Cyclic triazo and diazo sodium channel blockers” (University Of Greenwich, priority 2008, dated 2014).

Where a name gives a salt, the structure may show the parent alone.

Data set [1] has as its system 0.4 mm slices of rat hippocampus. Briefly: tissue or blood. The format is cell-based. The following applies: for Emax at 30 µM: Rattus norvegicus, read-out: % protection (v 1 μM TTX) (mean ± sem) (no. of expt's).
For the next data set, the system named is Sodium Channel, Site 2. The format is binding, Wistar Rat. To be noted: for IC50: read-out: [3H]BTX-B binding Extrapolated IC50.
In the next data set the test system is L-Type Calcium Channels. The data set can be described thus: L-type calcium channels: inhibition of binding of [3H]nitrendipine to rat cerebral cortex membranes. The following applies: for L-type Ca2+ % inhibition @ 10 μM: [3H]nitrendipine binding; for IC50: read-out: L-type Ca2+ IC50 (μM) (extrapolated from 10 μM inh'n), extrapolated assuming binding slope 1.0.

The next data set addresses hERG (Homo sapiens, UniProt Q12809). The data set can be described thus: hERG: inhibition of binding of [3H]astemizole to HEK-293 cells expressing human recombinant hERG. To be noted: for inhibition at 10 µM: human, probe [3H]astemizole.
The subject of another data set is sodium channel. The data set can be described thus: [14C]guanidine flux: veratrine-evoked uptake of [14C]guanidine into rat forebrain synaptosomes (primary sodium channel assay). The format is biochemical. To be noted: 30° for 2½ min. The essentials:
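Synaptosomal fraction from male Wistar rat forebrain (without cerebellum/medulla), 20-25 mg wet weight/ml. Veratrine-evoked [14C]guanidine uptake at 30° for 2½ min across a compound concentration range; IC50 from concentration-effect curves, mean±sem.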

The target of data set [2] is T1, DiHydroFolate Reductase (DHFR) (Rattus norvegicus, UniProt Q920D2).
T1 construct: from tissue; host or cells: rat liver homogenate supernatant
T1 sequence (Q920D2 1-187): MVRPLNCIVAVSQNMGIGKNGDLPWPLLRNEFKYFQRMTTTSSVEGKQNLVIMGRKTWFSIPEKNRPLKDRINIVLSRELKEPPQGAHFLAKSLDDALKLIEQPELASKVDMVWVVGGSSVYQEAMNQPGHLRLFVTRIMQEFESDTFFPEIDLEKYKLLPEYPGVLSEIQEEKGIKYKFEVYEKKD
The data set can be described thus: Inhibition of binding of [3H]methotrexate to rat liver homogenate supernatant. To be noted: 125 μM; read-out: [3H]mtx binding (% inhibition @ 125 μM). A digest of the protocol:
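Displacement of [3H]methotrexate binding to rat liver homogenate supernatant, prepared at 4 °C in pH 6.0 phosphate buffer with 15 mM dithiothreitol. Values are mean±sem over the number of experiments shown.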

Setting [3] is: 30 μM, iodoacetate 400 μM insult, slice ATP.

hERG, sequence (Q12809 whole entry): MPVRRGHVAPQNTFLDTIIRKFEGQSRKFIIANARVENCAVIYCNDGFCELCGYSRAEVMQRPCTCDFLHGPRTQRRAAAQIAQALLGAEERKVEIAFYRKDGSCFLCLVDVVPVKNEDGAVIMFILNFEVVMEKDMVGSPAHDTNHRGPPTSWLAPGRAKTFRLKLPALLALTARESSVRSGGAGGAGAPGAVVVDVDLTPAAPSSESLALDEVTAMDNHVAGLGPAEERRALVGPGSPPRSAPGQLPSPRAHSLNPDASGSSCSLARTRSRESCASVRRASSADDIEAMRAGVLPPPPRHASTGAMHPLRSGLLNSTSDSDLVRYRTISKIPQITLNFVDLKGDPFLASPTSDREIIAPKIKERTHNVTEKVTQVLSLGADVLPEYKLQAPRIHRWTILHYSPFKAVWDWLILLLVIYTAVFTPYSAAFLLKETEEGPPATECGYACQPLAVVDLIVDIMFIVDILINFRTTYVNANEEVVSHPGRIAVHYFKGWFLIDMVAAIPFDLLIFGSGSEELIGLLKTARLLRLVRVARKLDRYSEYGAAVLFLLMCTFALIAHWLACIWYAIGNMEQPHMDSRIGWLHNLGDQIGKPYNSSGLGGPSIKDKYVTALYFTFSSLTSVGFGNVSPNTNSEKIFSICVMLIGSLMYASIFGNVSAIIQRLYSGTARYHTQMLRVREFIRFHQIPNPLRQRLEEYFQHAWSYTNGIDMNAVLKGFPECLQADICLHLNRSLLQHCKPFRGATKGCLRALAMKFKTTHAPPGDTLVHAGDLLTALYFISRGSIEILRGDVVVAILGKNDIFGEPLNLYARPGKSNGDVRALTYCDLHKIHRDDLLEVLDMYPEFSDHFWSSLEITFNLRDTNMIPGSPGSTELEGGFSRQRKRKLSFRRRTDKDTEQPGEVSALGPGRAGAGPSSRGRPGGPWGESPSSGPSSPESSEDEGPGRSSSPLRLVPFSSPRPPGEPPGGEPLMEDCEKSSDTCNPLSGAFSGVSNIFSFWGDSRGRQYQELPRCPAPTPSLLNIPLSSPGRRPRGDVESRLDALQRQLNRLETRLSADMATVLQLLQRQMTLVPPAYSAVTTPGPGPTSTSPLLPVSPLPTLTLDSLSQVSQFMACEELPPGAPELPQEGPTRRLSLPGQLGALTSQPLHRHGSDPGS

Turning to `NC1=N[C@H](O)[C@H]2[C@H]3O[C@]4(O)O[C@@H]([C@@H](O)[C@@]2(N1)[C@@H]4O)[C@]3(O)CO` [TTX, tetrodotoxin, reference compound], the “% protection (v 1 μM TTX)” value in data set [1] was 100%.

On to `N=c1nc(N)c(-c2cc(C(F)(F)F)cc(Cl)c2F)nn1CC(F)(F)C(F)(F)F.O=S(=O)(O)C(F)(F)F` [CEN-211, 5(3)-Amino-6-(3-chloro-2-fluoro-5-trifluoromethyphenyl)-2,3(2,5)-dihydro-3(5)-imino-2-(2,2,3,3,3-pentafluoropropyl)-1,2,4-triazine trifluoromethanesulphonate], for which, in the data set on Sodium Channel, Site 2, the “[3H]BTX-B binding % inhibition (@ 10 μM)” value is listed as 106% and the IC50 is below 0.5 µM.

As for `CCc1nc(N)nc(N)c1-c1ccc(Cl)cc1` [CEN-48, 2,4-Diamino-5-(4-chlorophenyl)-6-ethyl-pyrimidine, reference compound], in the data set with L-Type Calcium Channels, the “L-type Ca2+ % inhibition @ 10 μM” value is on record as −1% and the half-inhibitory concentration (IC50) is above 190 µM. In addition, at hERG, the IC50 was determined as 46 µM and the inhibition at 10 µM was 18%. In the data set with sodium channel, this compound showed an IC50 of 5.8 µM.

The compound `Nc1cnc(-c2cccc(Cl)c2Cl)c(N)n1` [CEN-87, 2,6-Diamino-3-(2,3-dichlorophenyl)pyrazine] yielded a melting point of 150 to 153 °C. Also, in the data set on L-Type Calcium Channels, the “L-type Ca2+ % inhibition @ 10 μM” value is given as 7% and the IC50 is 133 µM. The inhibition at 125 µM in data set [2] was -5%. On hERG, the IC50 is above 200 µM and the inhibition at 10 µM came to 3%. The compound further yielded an IC50 in the data set with sodium channel of 288 µM.

On to `Nc1nnc(-c2cc(OCC(F)(F)F)ccc2OCC(F)(F)F)c(N)n1` [CEN-140, 3,5-Diamino-6-[2,5-bis(2,2,2-trifluoroethoxy)phenyl]-1,2,4-triazine], for which the Emax at 30 µM in data set [1] (setting [3]) was -11%. In addition, in data set [2], the inhibition at 125 µM amounted to 3%. The compound also displayed an IC50 in the data set with sodium channel of 229 µM.

As for `O=C1NC(=O)C(c2ccccc2)(c2ccccc2)N1` [DPH, reference compound], the “% protection (v 1 μM TTX) (mean ± sem) (no. of expt's)” value in data set [1] (setting [3]) is listed as 48%.

For the compound `CCn1nc(-c2cc(C(F)(F)F)cc(Cl)c2F)c(N)nc1=N` [CEN-203, 5(3)-Amino-6-(3-chloro-2-fluoro-5-trifluoromethyphenyl)-2,3(2,5)-dihydro-3(5)-imino-2-ethyl-1,2,4-triazine mesylate], in the data set with Sodium Channel, Site 2, the “[3H]BTX-B binding % inhibition (@ 10 μM)” value is 102% and the IC50 is below 0.5 µM.

As to `Nc1nnc(-c2cc(F)c(F)cc2Cl)c(N)n1` [CEN-207, 3,5-Diamino-6-(2-chloro-4,5-difluorophenyl)-1,2,4-triazine], the melting point is 240 to 242 °C. Also, in the data set on Sodium Channel, Site 2, the “[3H]BTX-B binding % inhibition (@ 10 μM)” value is recorded as 30% and the IC50 is 23 µM.

`Nc1nnc(-c2cc(F)c(F)c(F)c2F)c(N)n1` [CEN-208, 3,5-Diamino-6-(2,3,4,5-tetrafluorophenyl)-1,2,4-triazine] displayed a melting point of 233 to 235 °C. In the data set on Sodium Channel, Site 2, the “[3H]BTX-B binding % inhibition (@ 10 μM)” value came to 31% and the IC50 is 22 µM.

As to `CC(C)(Oc1ccc(Cl)cc1)c1nnc(N)nc1N` [CEN-215, 3,5-Diamino-6-{1-(4-chlorophenoxy)-1-methyl}ethyl-1,2,4-triazine tosylate], in the data set with Sodium Channel, Site 2, the “[3H]BTX-B binding % inhibition (@ 10 μM)” value amounted to 22% and the concentration for half-maximal inhibition (IC50) was 35 µM.

With `CCn1nc(-c2cc(F)c(F)cc2Cl)c(N)nc1=N.CS(=O)(=O)O` [CEN-205, 5(3)-Amino-6-(2-chloro-4,5-difluoro-5-phenyl)-2,3(2,5)-dihydro-3(5)-imino-2-ethyl-1,2,4-triazine mesylate], in the data set on Sodium Channel, Site 2, the “[3H]BTX-B binding % inhibition (@ 10 μM)” value is recorded as 79% and the IC50 is 3 µM.

For the compound `Cn1nc(-c2cc(C(F)(F)F)cc(Cl)c2F)c(N)nc1=N` [CEN-202, 5(3)-Amino-6-(3-chloro-2-fluoro-5-trifluoromethyphenyl)-2,3(2,5)-dihydro-3(5)-imino-2-methyl-1,2,4-triazine mesylate], in the data set on Sodium Channel, Site 2, the “[3H]BTX-B binding % inhibition (@ 10 μM)” value is 90% and the IC50 is 1 µM.

As to `Cc1ccc(S(=O)(=O)O)cc1.Nc1nnc(-c2c(C(F)(F)F)ccc(Cl)c2Cl)c(N)n1` [CEN-209, 3,5-Diamino-6-(2,3-dichloro-6-trifluoromethylphenyl)-1,2,4-triazine tosylate], in the data set on Sodium Channel, Site 2, the “[3H]BTX-B binding % inhibition (@ 10 μM)” value turned out to be 36% and the IC50 is 18 µM.

With `Cn1nc(-c2cc(F)c(F)cc2Cl)c(N)nc1=N` [CEN-204, 5(3)-Amino-6-(2-chloro-4,5-difluoro-5-phenyl)-2,3(2,5)-dihydro-3(5)-imino-2-methyl-1,2,4-triazine mesylate], in the data set on Sodium Channel, Site 2, the “[3H]BTX-B binding % inhibition (@ 10 μM)” value came out at 52% and the 50% inhibitory concentration (IC50) is 9 µM.

For the compound `Cc1ccc(S(=O)(=O)O)cc1.Nc1nnc(-c2cc(C(F)(F)F)ccc2C(F)(F)F)c(N)n1` [CEN-198, 3,5-Diamino-6-[2,5-bis(trifluoromethyl)phenyl]-1,2,4-triazine tosylate], in the data set on Sodium Channel, Site 2, the “[3H]BTX-B binding % inhibition (@ 10 μM)” value was determined as 23% and the IC50 is 34 µM.

As for `Nc1nnc(-c2cccc(C(F)(F)F)c2Cl)c(N)n1` [CEN-199, 3,5-Diamino-6-(2-chloro-3-trifluoromethylphenyl)-1,2,4-triazine], in the data set on Sodium Channel, Site 2, the “[3H]BTX-B binding % inhibition (@ 10 μM)” value stood at 29% and the IC50 was 25 µM.

As to `N=c1nc(N)c(-c2cc(Cl)cc(Cl)c2Cl)nn1CC(F)F` [CEN-85, 5(3)-Amino-6-(2,3,5-trichlorophenyl)-2,3(2,5)-dihydro-3(5)-imino-2-(2,2-difluoroethyl)-1,2,4-triazine], the melting point was 168 to 170 °C (dec.). Further, in the data set with L-Type Calcium Channels, the “L-type Ca2+ % inhibition @ 10 μM” value is listed as −15% and the IC50 was above 190 µM. Moreover, the inhibition at 125 µM in data set [2] is -5%. For the same compound, on hERG, the IC50 came to 16 µM and the inhibition at 10 µM was 39%. The compound also returned an IC50 with sodium channel of 3.6 µM.

Consider `Cc1ccc(S(=O)(=O)O)cc1.Nc1nnc(-c2c(Cl)ccc(Cl)c2Cl)c(N)n1` [CEN-214, 3,5-Diamino-6-(2,3,6-trichlorophenyl)-1,2,4-triazine tosylate], for which, in the data set with Sodium Channel, Site 2, the “[3H]BTX-B binding % inhibition (@ 10 μM)” value is given as 10% and the IC50 is 90 µM.

The compound `Nc1nnc(-c2cc(Cl)ccc2C(F)(F)F)c(N)n1` [CEN-200, 3,5-Diamino-6-(5-chloro-2-trifluoromethylphenyl)-1,2,4-triazine] gave a melting point of 242 to 243 °C. Also, in the data set on Sodium Channel, Site 2, the “[3H]BTX-B binding % inhibition (@ 10 μM)” value is 14% and the 50% inhibitory concentration (IC50) was 61 µM.

In turn, `Nc1nnc(-c2ccc(F)c(F)c2F)c(N)n1` [CEN-206, 3,5-Diamino-6-(2,3,4-trifluorophenyl)-1,2,4-triazine] came in with a melting point of 242 to 243 °C. Moreover, in the data set with Sodium Channel, Site 2, the “[3H]BTX-B binding % inhibition (@ 10 μM)” value was 24% and the IC50 is 32 µM.

Take `Cc1ccc(S(=O)(=O)O)cc1.Nc1nnc(-c2c(F)c(F)c(F)c(F)c2F)c(N)n1` [CEN-212, 3,5-Diamino-6-(2,3,4,5,6-pentafluorophenyl)-1,2,4-triazine tosylate]: in the data set with Sodium Channel, Site 2, the “[3H]BTX-B binding % inhibition (@ 10 μM)” value is recorded as 0% and the 50% inhibitory concentration (IC50) was above 200 µM.

On to `CN1CCN(c2ncc(-c3cc(Cl)cc(Cl)c3Cl)c(N)n2)CC1` [Sipatrigine, reference compound], for which the Emax at 30 µM in data set [1] (setting [3]) is 58%.

Take `Nc1nnc(C(c2ccc(Cl)cc2)c2ccc(Cl)cc2)c(N)n1` [CEN-213, 3,5-Diamino-6-[1,1 bis-(4-chlorophenyl)methyl]-1,2,4-triazine]: in the data set with Sodium Channel, Site 2, the “[3H]BTX-B binding % inhibition (@ 10 μM)” value was −2% and the IC50 is above 200 µM.
